Experimental data from PubChem BioAssay (NCI).
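Interpolation was linear, between the two tested concentrations surrounding the appropriate level; five concentrations were tested over 48 hours in 96-well plates. Abbreviation: GI50, concentration required for 50% inhibition of growth. TGI denotes the concentration required for complete inhibition of growth.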

Key:
Experiment in all cases: growth of human tumour cells (NCI), 48 h
OVCAR-4 ovarian = tested on: OVCAR-4 ovarian
HCT-116 colon = tested on: HCT-116 colon
DU-145 prostate = tested on: DU-145 prostate
SR leukemia = tested on: SR leukemia
RXF 393 renal = tested on: RXF 393 renal
K-562 leukemia = tested on: K-562 leukemia
SNB-19 CNS = tested on: SNB-19 CNS
T-47D breast = tested on: T-47D breast
PC-3 prostate = tested on: PC-3 prostate
SK-MEL-5 melanoma = tested on: SK-MEL-5 melanoma
MDA-MB-231 breast = tested on: MDA-MB-231 breast
786-0 renal = tested on: 786-0 renal
OVCAR-5 ovarian = tested on: OVCAR-5 ovarian
IGROV1 ovarian = tested on: IGROV1 ovarian
HL-60(TB) leukemia = tested on: HL-60(TB) leukemia
HOP-92 NSCLC = tested on: HOP-92 NSCLC
KM12 colon = tested on: KM12 colon
HT29 colon = tested on: HT29 colon
SW-620 colon = tested on: SW-620 colon
HCT-15 colon = tested on: HCT-15 colon
HCC-2998 colon = tested on: HCC-2998 colon
HOP-62 NSCLC = tested on: HOP-62 NSCLC
MCF7 breast = tested on: MCF7 breast
SK-OV-3 ovarian = tested on: SK-OV-3 ovarian
SN12C renal = tested on: SN12C renal
UACC-62 melanoma = tested on: UACC-62 melanoma
CCRF-CEM leukemia = tested on: CCRF-CEM leukemia
UO-31 renal = tested on: UO-31 renal

SMILES: CC(=O)OC1CCC2(C)C(CCC3C4CC=C(C(C)=O)C4(C)OC(=O)CC32)C1 (stereo not given)
- GI50 (OVCAR-4 ovarian): 1.7 µM
- TGI (OVCAR-4 ovarian): 3.31 µM
- GI50 (HCT-116 colon): 1.13 µM
- TGI (HCT-116 colon): 2.62 µM
- GI50 (DU-145 prostate): 2.36 µM
- TGI (DU-145 prostate): 6.1 µM
- GI50 (SR leukemia): 0.382 µM
- TGI (SR leukemia): 18.2 µM
- GI50 (RXF 393 renal): 1.15 µM
- TGI (RXF 393 renal): 2.51 µM
- GI50 (K-562 leukemia): 3.35 µM
- TGI (K-562 leukemia): 10.3 µM
- GI50 (SNB-19 CNS): 13.3 µM
- TGI (SNB-19 CNS): 27.9 µM
- GI50 (T-47D breast): 1.64 µM
- TGI (T-47D breast): 3.4 µM
- GI50 (PC-3 prostate): 4.56 µM
- TGI (PC-3 prostate): 16.7 µM
- GI50 (SK-MEL-5 melanoma): 2.13 µM
- TGI (SK-MEL-5 melanoma): 4.95 µM
- GI50 (MDA-MB-231 breast): 2.05 µM
- TGI (MDA-MB-231 breast): 4.33 µM
- GI50 (786-0 renal): 2.52 µM
- TGI (786-0 renal): 6.59 µM
- GI50 (OVCAR-5 ovarian): 2.75 µM
- TGI (OVCAR-5 ovarian): 7.63 µM
- GI50 (IGROV1 ovarian): 2.88 µM
- TGI (IGROV1 ovarian): 10.3 µM
- GI50 (HL-60(TB) leukemia): 2.05 µM
- TGI (HL-60(TB) leukemia): 5.05 µM
- GI50 (HOP-92 NSCLC): 1.74 µM
- TGI (HOP-92 NSCLC): 4.21 µM
- GI50 (KM12 colon): 9.83 µM
- TGI (KM12 colon): 22.7 µM
- GI50 (HT29 colon): 1.6 µM
- TGI (HT29 colon): 3.09 µM
- GI50 (SW-620 colon): 1.52 µM
- TGI (SW-620 colon): 3.43 µM
- GI50 (HCT-15 colon): 1.13 µM
- TGI (HCT-15 colon): 2.61 µM
- GI50 (HCC-2998 colon): 2.21 µM
- TGI (HCC-2998 colon): 4.06 µM
- GI50 (HOP-62 NSCLC): 4.06 µM
- TGI (HOP-62 NSCLC): 14.7 µM
- GI50 (MCF7 breast): 1.4 µM
- TGI (MCF7 breast): 3.01 µM
- GI50 (SK-OV-3 ovarian): 11.1 µM
- TGI (SK-OV-3 ovarian): 23.1 µM
- GI50 (SN12C renal): 3.26 µM
- TGI (SN12C renal): 13.6 µM
- GI50 (UACC-62 melanoma): 1.72 µM
- TGI (UACC-62 melanoma): 3.53 µM
- GI50 (CCRF-CEM leukemia): 1.3 µM
- TGI (CCRF-CEM leukemia): 4.87 µM
- GI50 (UO-31 renal): 2.05 µM
